Results on 2 compounds are retold here after PMC5629628, “The development of activatable lytic peptides for targeting triple negative breast cancer” (Cell Death Discovery, 2017).

Data set [1] concerns caspase-3/7 in MDA-MB-231 cells. The data set is described as follows: Caspase-3/7 activation analysis. The class given is cell-based, human. To be noted: MDA-MB-231, 4 h treatment; Uk14 5 μM, Ur11 10 μM, ABT-737 10 μM. The protocol:
Cells (MDA-MB-231) were plated 10 000 per well on 96-well plates in medium containing 10% fetal bovine serum and incubated with serial dilution of peptides and ABT-737 for 4 h. Then caspase-3/7 activation was measured by addition of the caspase-Glo 3/7 chemiluminescence reagent in accordance with the manufacturer’s protocol (Promega, Madison, WI, USA).

In data set [2] the test system is MDA-MB-231. The experiment in a line: Cell viability with or without caspase inhibitor Z-VAD-FMK. The class given is cell-based, human. To be noted: MDA-MB-231, 24 h treatment, with or without Z-VAD-FMK.
Protocol: (§2) 100 μl of 4×10^4/ml cell suspension (MDA-MB-231, MCF-7, HeLa, SK-OV-3) was placed in each well of the 96-well culture plate and allowed to grow in dulbecco's modified eagle medium or Leibovitz medium (L-15) supplemented with 10% fetal bovine serum overnight. The cells were incubated with serial dilution of compounds at 310 K in 5% fetal bovine serum containing media for 24 h supplied with 5% CO2. At the end of the compounds exposure, 20 μl of 3-(4,5-dimethyl-2-thiazolyl)-2,5-diphenyl-2-H-tetrazolium bromide reagent was added and incubated at 310 K for 4 h. The absorbance of formazan product was measured at 490 nm by a microplate reader (PerkinElmer, Waltham, MA, USA). Cells without peptide were treated as control. *P<0.05, **P<0.01, ***P<0.001 compared with vehicle-treated cells. In Z-VAD-FMK assays, *P<0.05, **P<0.01, ***P<0.001 compared with cells without treatment of Z-VAD-FMK.
The test system of data set [3] is kidney. The data set is described as follows: Chronic renal toxicity, kidney haematoxylin-eosin staining. Format: in vivo, mice. To be noted: 20 mg/kg i.v. every other day over 2 weeks. The protocol: (§1) In acute toxicity studies, 12 mice were divided into four groups (n=3 for each group) and administered via intravenous injection with peptide (e8-Uk14, e7-Ur11) at the dose of 20 or 40 mg/kg. In chronic renal toxicity studies, mice were administered via intravenous injection with peptide (e8-Uk14, e7-Ur11) at the dose of 20 mg/kg every other day over a periods of 2 weeks.

Data set [4] concerns mouse red blood cells. The data set is described as follows: Haemolytic activity. The class given is cell-based. To be noted: mouse red blood cells 10^8/ml in 0.9% NaCl, 1 h, 310 K, absorbance 570 nm. The protocol: Fresh mouse red blood cells were collected and centrifuged at 800 rpm for 5 min. The erythrocytes were washed and re suspended in 0.9% NaCl to 10^8/ml. A serial dilution of peptides were added and incubate at 310 K. After 1 h incubation, erythrocytes were centrifuged and the release of hemoglobin was monitored by measuring the absorbance of supernatant at 570 nm by a microplate reader (PerkinElmer).

The subject of data set [5] is MDA-MB-231 tumour. The experiment in a line: In vivo fluorescence imaging and tissue distribution. Set-up: species or system mice. To be noted: Cy5-labelled peptides, n=2. As to the method:
Four-week-old nude mice were purchased from the Vital River (Beijing, China) and allowed to grow for further two weeks. Approximately 1×10^6 MDA-MB-231 cells were injected into the mammary fat pads of female mice in a vehicle of 4 mg/ml Matrigel (Becton Dickinson and Co., New York, NY, USA). One week later, mice bearing tumours around 50 mm^3 in volume were randomly divided into groups for subsequent experiments.
For optical imaging, mice were anesthetized with isoflurane. Cy5-labelled peptides were injected intravenously at a dose of 100 μl, 50 μM. At each time point, mice were again anesthetized and imaged using IVIS Spectrum Pre-clinical In Vivo Imaging System (640 nm/680 nm). Fluorescence in manually set regions of interest was quantified by Living Image. The contrast ratio was calculated by dividing the tumour fluorescence by the chest and abdomen fluorescence.

Data set [6] relates to HEK293T. The data set is described as follows: Cell viability, non-tumourigenic HEK293T. The class given is cell-based. To be noted: 24 h treatment.
Protocol: as §2
The test system of data set [7] is nude mice. The experiment in a line: Acute toxicity in mice. Format: in vivo. To be noted: 40 mg/kg (200 μl, 4 mg/ml) intravenous, n=3 per group. The protocol:
as §1

Each structure is given as a SMILES string.

As for `CN(C)CC[C@H](CSc1ccccc1)Nc1ccc(S(=O)(=O)NC(=O)c2ccc(N3CCN(Cc4ccccc4-c4ccc(Cl)cc4)CC3)cc2)cc1[N+](=O)[O-]` [ABT-737, reference compound], in data set [1], the caspase-3/7 activation result is reported as “observed”. In data set [2], the “effect of caspase inhibitor Z-VAD-FMK on cytotoxic effect” value is on record as “did have an inhibitory effect”.
As for `CC(=O)N[C@H](Cc1c[nH]c2ccccc12)C(=O)NCCC(=O)N[C@H](CCC(=O)O)C(=O)N[C@H](CCC(=O)O)C(=O)N[C@H](CCC(=O)O)C(=O)N[C@H](CCC(=O)O)C(=O)N[C@H](CCC(=O)O)C(=O)N[C@H](CCC(=O)O)C(=O)N[C@H](CCC(=O)O)C(=O)NCCCCCC(=O)N1CCC[C@H]1C(=O)N[C@@H](CC(C)C)C(=O)NCC(=O)N[C@@H](CC(C)C)C(=O)N[C@@H](C)C(=O)NCC(=O)N[C@H](CCCNC(=N)N)C(=O)N[C@H](CC(C)C)C(=O)NC(C)(C)C(=O)N[C@H](CCCNC(=N)N)C(=O)N[C@H](CCCNC(=N)N)C(=O)N[C@H](CC(C)C)C(=O)NC(C)(C)C(=O)N[C@H](CCCNC(=N)N)C(=O)N[C@H](CC(C)C)C(=O)NC(C)(C)C(=O)N[C@H](CCCNC(=N)N)C(N)=O` [e7-Ur11], in data set [3], the “kidney histology (haematoxylin-eosin staining)” value is on record as “bleeding was observed at the junction of renal”. The haemolytic activity result in data set [4] was “diminished membrane disruption and haemolysis”. The “tumour accumulation (in vivo fluorescence imaging)” value in data set [5] (100 μl 50 μM, tail vein, MDA-MB-231 tumour-bearing mice) was “significantly higher accumulation in tumours compared to unmodified peptides”. Moreover, in data set [5] (organs excised 6 h after injection), the “uptake in excised tumour” value was “higher compared to UK14 and Ur11”. In addition, the “cytotoxicity against non-tumourigenic HEK293T” value in data set [6] is listed as “no obvious cytotoxicity”. In addition, the “acute toxicity (survival)” value in data set [7] is “caused death (one in three survived)”.
